In patent publication US20080051387A1, “TETRAHYDROPYRIDO[3,4-D]PYRIMIDINES AND RELATED ANALOGUES” (priority 2006, published 2008):

What follows are compounds tested against T1, chimeric human H3 receptor (Homo sapiens, UniProt Q9Y5N1) (assay: Chimeric human H3 receptor screening GTP binding assay (inhibition of histamine-stimulated GTP-gamma35S binding, Example 8)). Conditions: 1 h; assay of Example 8; symbol "!" in column headed Ki; read-out: percent inhibition of agonist-induced GTP-gammaS binding to H3.
T1 construct: rat Galpha-i2 (Gnai2, rat); made in house; host or cells: Sf9 insect cells (baculovirus); P2 membranes
Type: biochemical
Summary of the method: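 Sf9 membranes co-expressing chimeric human H3 receptor and heterotrimeric G-protein (35 μg protein) incubated 60 min at room temperature with 4 μM compound, 1 μM histamine and 125 pM GTP-gamma35S in pH 7.4 buffer with 10 μM GDP. Filter-bound radioactivity, nonspecific (10 μM GTP-gammaS) subtracted, reported as % inhibition of histamine signal.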

T1 sequence (Q9Y5N1 with tags, fused parts or gaps): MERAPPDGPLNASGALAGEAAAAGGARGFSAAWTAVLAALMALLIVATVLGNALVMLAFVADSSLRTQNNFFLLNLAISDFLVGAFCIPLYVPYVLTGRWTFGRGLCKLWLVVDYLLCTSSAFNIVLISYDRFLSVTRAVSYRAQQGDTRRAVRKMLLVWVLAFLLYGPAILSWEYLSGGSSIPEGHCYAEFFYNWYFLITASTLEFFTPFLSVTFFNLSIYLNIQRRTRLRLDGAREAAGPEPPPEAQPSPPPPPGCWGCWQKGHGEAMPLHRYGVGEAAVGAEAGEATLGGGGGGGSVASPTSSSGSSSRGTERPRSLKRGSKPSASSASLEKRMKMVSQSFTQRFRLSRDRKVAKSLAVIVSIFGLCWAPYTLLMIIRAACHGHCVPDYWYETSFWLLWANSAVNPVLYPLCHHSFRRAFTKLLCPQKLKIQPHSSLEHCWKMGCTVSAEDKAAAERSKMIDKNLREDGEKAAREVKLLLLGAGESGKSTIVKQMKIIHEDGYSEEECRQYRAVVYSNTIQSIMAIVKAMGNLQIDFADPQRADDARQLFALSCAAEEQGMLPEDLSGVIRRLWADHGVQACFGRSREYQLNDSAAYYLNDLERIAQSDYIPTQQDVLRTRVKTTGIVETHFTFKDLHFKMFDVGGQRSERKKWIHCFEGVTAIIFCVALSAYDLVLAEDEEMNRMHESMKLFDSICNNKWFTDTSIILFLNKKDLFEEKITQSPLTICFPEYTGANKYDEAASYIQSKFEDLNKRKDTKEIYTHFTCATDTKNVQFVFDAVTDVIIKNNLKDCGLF

Inhibition at 4 µM, ≥ 90%:
O=C(Cc1ccc(Cl)cc1Cl)N1CCc2cnc(N3CCN(C4CCC4)CC3)nc2CC1 [Compound 296, 2-(4-cyclobutylpiperazin-1-yl)-7-[(2,4-dichlorophenyl)acetyl]-6,7,8,9-tetrahydro-5H-pyrimido[4,5-d]azepine]
O=C(Cc1ccccc1Br)N1CCc2cnc(N3CCN(C4CCC4)CC3)nc2CC1 [Compound 297, 7-[(2-bromophenyl)acetyl]-2-(4-cyclobutylpiperazin-1-yl)-6,7,8,9-tetrahydro-5H-pyrimido[4,5-d]azepine]
O=C(Cc1c(F)cccc1Cl)N1CCc2cnc(N3CCN(C4CCC4)CC3)nc2CC1 [Compound 298, 7-[(2-chloro-6-fluorophenyl)acetyl]-2-(4-cyclobutylpiperazin-1-yl)-6,7,8,9-tetrahydro-5H-pyrimido[4,5-d]azepine]
COc1cc(Br)c(CC(=O)N2CCc3cnc(N4CCN(C5CCC5)CC4)nc3CC2)cc1OC [Compound 299, 7-[(2-bromo-4,5-dimethoxyphenyl)acetyl]-2-(4-cyclobutylpiperazin-1-yl)-6,7,8,9-tetrahydro-5H-pyrimido[4,5-d]azepine]
O=C(Cc1c(Cl)ccc(Cl)c1Cl)N1CCc2cnc(N3CCN(C4CCC4)CC3)nc2CC1 [Compound 300, 2-(4-cyclobutylpiperazin-1-yl)-7-[(2,3,6-trichlorophenyl)acetyl]-6,7,8,9-tetrahydro-5H-pyrimido[4,5-d]azepine]
O=C(Cc1cc(Cl)ccc1Br)N1CCc2cnc(N3CCN(C4CCC4)CC3)nc2CC1 [Compound 301, 7-[(2-bromo-5-chlorophenyl)acetyl]-2-(4-cyclobutylpiperazin-1-yl)-6,7,8,9-tetrahydro-5H-pyrimido[4,5-d]azepine]
O=C(Cc1ccc(F)cc1Cl)N1CCc2cnc(N3CCN(C4CCC4)CC3)nc2CC1 [Compound 302, 7-[(2-chloro-4-fluorophenyl)acetyl]-2-(4-cyclobutylpiperazin-1-yl)-6,7,8,9-tetrahydro-5H-pyrimido[4,5-d]azepine]
O=C(Cc1c(Cl)cccc1Cl)N1CCc2cnc(N3CCN(C4CCC4)CC3)nc2CC1 [Compound 303, 2-(4-cyclobutylpiperazin-1-yl)-7-[(2,6-dichlorophenyl)acetyl]-6,7,8,9-tetrahydro-5H-pyrimido[4,5-d]azepine]
O=C(Cc1ccccc1Oc1ccccc1)N1CCc2cnc(N3CCN(C4CCC4)CC3)nc2CC1 [Compound 304, 2-(4-cyclobutylpiperazin-1-yl)-7-[(2-phenoxyphenyl)acetyl]-6,7,8,9-tetrahydro-5H-pyrimido[4,5-d]azepine]
Cc1ccccc1CC(=O)N1CCc2cnc(N3CCN(C4CCC4)CC3)nc2CC1 [Compound 305, 2-(4-cyclobutylpiperazin-1-yl)-7-[(2-methylphenyl)acetyl]-6,7,8,9-tetrahydro-5H-pyrimido[4,5-d]azepine]
COc1ccccc1CC(=O)N1CCc2cnc(N3CCN(C4CCC4)CC3)nc2CC1 [Compound 306, 2-(4-cyclobutylpiperazin-1-yl)-7-[(2-methoxyphenyl)acetyl]-6,7,8,9-tetrahydro-5H-pyrimido[4,5-d]azepine]
CCOc1ccccc1CC(=O)N1CCc2cnc(N3CCN(C4CCC4)CC3)nc2CC1 [Compound 307, 2-(4-cyclobutylpiperazin-1-yl)-7-[(2-ethoxyphenyl)acetyl]-6,7,8,9-tetrahydro-5H-pyrimido[4,5-d]azepine]
COc1ccc(OC)c(CC(=O)N2CCc3cnc(N4CCN(C5CCC5)CC4)nc3CC2)c1 [Compound 308, 2-(4-cyclobutylpiperazin-1-yl)-7-[(2,5-dimethoxyphenyl)acetyl]-6,7,8,9-tetrahydro-5H-pyrimido[4,5-d]azepine]
O=C(Cc1cccc2ccccc12)N1CCc2cnc(N3CCN(C4CCC4)CC3)nc2CC1 [Compound 309, 2-(4-cyclobutylpiperazin-1-yl)-7-(1-naphthylacetyl)-6,7,8,9-tetrahydro-5H-pyrimido[4,5-d]azepine]
COc1ccc(CC(=O)N2CCc3cnc(N4CCN(C5CCC5)CC4)nc3CC2)c(OC)c1 [Compound 310, 2-(4-cyclobutylpiperazin-1-yl)-7-[(2,4-dimethoxyphenyl)acetyl]-6,7,8,9-tetrahydro-5H-pyrimido[4,5-d]azepine]
COc1ccc(Br)cc1CC(=O)N1CCc2cnc(N3CCN(C4CCC4)CC3)nc2CC1 [Compound 311, 7-[(5-bromo-2-methoxyphenyl)acetyl]-2-(4-cyclobutylpiperazin-1-yl)-6,7,8,9-tetrahydro-5H-pyrimido[4,5-d]azepine]
COc1cccc(CC(=O)N2CCc3cnc(N4CCN(C5CCC5)CC4)nc3CC2)c1OC [Compound 312, 2-(4-cyclobutylpiperazin-1-yl)-7-[(2,3-dimethoxyphenyl)acetyl]-6,7,8,9-tetrahydro-5H-pyrimido[4,5-d]azepine]
O=C(Cc1ccccc1OC(F)(F)F)N1CCc2cnc(N3CCN(C4CCC4)CC3)nc2CC1 [Compound 313, 2-(4-cyclobutylpiperazin-1-yl)-7-{[2-(trifluoromethoxy)phenyl]acetyl}-6,7,8,9-tetrahydro-5H-pyrimido[4,5-d]azepine]
O=C(Cc1ccccc1OCc1ccccc1)N1CCc2cnc(N3CCN(C4CCC4)CC3)nc2CC1 [Compound 314, 7-{[2-(benzyloxy)phenyl]acetyl}-2-(4-cyclobutylpiperazin-1-yl)-6,7,8,9-tetrahydro-5H-pyrimido[4,5-d]azepine]
O=C(COc1ccccc1)N1CCc2cnc(N3CCN(C4CCC4)CC3)nc2CC1 [Compound 315, 2-(4-cyclobutylpiperazin-1-yl)-7-(phenoxyacetyl)-6,7,8,9-tetrahydro-5H-pyrimido[4,5-d]azepine]
Cc1ccc(OCC(=O)N2CCc3cnc(N4CCN(C5CCC5)CC4)nc3CC2)cc1 [Compound 316, 2-(4-cyclobutylpiperazin-1-yl)-7-[(4-methylphenoxy)acetyl]-6,7,8,9-tetrahydro-5H-pyrimido[4,5-d]azepine]
O=C(COc1ccc(F)cc1)N1CCc2cnc(N3CCN(C4CCC4)CC3)nc2CC1 [Compound 317, 2-(4-cyclobutylpiperazin-1-yl)-7-[(4-fluorophenoxy)acetyl]-6,7,8,9-tetrahydro-5H-pyrimido[4,5-d]azepine]
COc1cc(Cl)ccc1OCC(=O)N1CCc2cnc(N3CCN(C4CCC4)CC3)nc2CC1 [Compound 318, 7-[(4-chloro-2-methoxyphenoxy)acetyl]-2-(4-cyclobutylpiperazin-1-yl)-6,7,8,9-tetrahydro-5H-pyrimido[4,5-d]azepine]
O=C(COc1ccc(OC(F)(F)F)cc1)N1CCc2cnc(N3CCN(C4CCC4)CC3)nc2CC1 [Compound 319, 2-(4-cyclobutylpiperazin-1-yl)-7-{[4-(trifluoromethoxy)phenoxy]acetyl}-6,7,8,9-tetrahydro-5H-pyrimido[4,5-d]azepine]
O=C(COc1ccccc1Cl)N1CCc2cnc(N3CCN(C4CCC4)CC3)nc2CC1 [Compound 320, 7-[(2-chlorophenoxy)acetyl]-2-(4-cyclobutylpiperazin-1-yl)-6,7,8,9-tetrahydro-5H-pyrimido[4,5-d]azepine]
Cc1ccccc1OCC(=O)N1CCc2cnc(N3CCN(C4CCC4)CC3)nc2CC1 [Compound 321, 2-(4-cyclobutylpiperazin-1-yl)-7-[(2-methylphenoxy)acetyl]-6,7,8,9-tetrahydro-5H-pyrimido[4,5-d]azepine]
Cc1cccc(OCC(=O)N2CCc3cnc(N4CCN(C5CCC5)CC4)nc3CC2)c1 [Compound 322, 2-(4-cyclobutylpiperazin-1-yl)-7-[(3-methylphenoxy)acetyl]-6,7,8,9-tetrahydro-5H-pyrimido[4,5-d]azepine]
COc1ccccc1OCC(=O)N1CCc2cnc(N3CCN(C4CCC4)CC3)nc2CC1 [Compound 323, 2-(4-cyclobutylpiperazin-1-yl)-7-[(2-methoxyphenoxy)acetyl]-6,7,8,9-tetrahydro-5H-pyrimido[4,5-d]azepine]
COc1cccc(OCC(=O)N2CCc3cnc(N4CCN(C5CCC5)CC4)nc3CC2)c1 [Compound 324, 2-(4-cyclobutylpiperazin-1-yl)-7-[(3-methoxyphenoxy)acetyl]-6,7,8,9-tetrahydro-5H-pyrimido[4,5-d]azepine]
COc1ccc(OCC(=O)N2CCc3cnc(N4CCN(C5CCC5)CC4)nc3CC2)cc1 [Compound 325, 2-(4-cyclobutylpiperazin-1-yl)-7-[(4-methoxyphenoxy)acetyl]-6,7,8,9-tetrahydro-5H-pyrimido[4,5-d]azepine]
O=C(COc1ccc(Cl)cc1)N1CCc2cnc(N3CCN(C4CCC4)CC3)nc2CC1 [Compound 326, 7-[(4-chlorophenoxy)acetyl]-2-(4-cyclobutylpiperazin-1-yl)-6,7,8,9-tetrahydro-5H-pyrimido[4,5-d]azepine]
Cc1cccc(OCC(=O)N2CCc3cnc(N4CCN(C5CCC5)CC4)nc3CC2)c1C [Compound 327, 2-(4-cyclobutylpiperazin-1-yl)-7-[(2,3-dimethylphenoxy)acetyl]-6,7,8,9-tetrahydro-5H-pyrimido[4,5-d]azepine]
